Measurements: ChEMBL document CHEMBL1122475, “Antidepressant activity of 5-aryl-2,3,5,6-tetrahydroimidazo[2,1-a]isoquinolin-5-ols” (1983)
Activity calls are given as the source filed them. The calls are words filed in the database; no cut-off is given here.

Tests used:
[1] = tested on: Mus musculus; assay: Minimal dose required to cause aggressiveness in mice after ip administration; not active at a dose of 12.5 mg/kg; type: functional, organism-based; set-up: dose 12.5 mg/kg
[2] = tested on: Mus musculus; assay: Dose at which 50% convulsions occurred in mice (ip); type: functional
[3] = tested on: Mus musculus; assay: Minimal dose required to induce hyperaesthesia in mice (ip); type: functional
[4] = tested on: Mus musculus; assay: Dose required to induce hyperactivity in mice (ip); not active at a dose of 12.5 mg/kg; type: functional, organism-based; set-up: dose 12.5 mg/kg
[5] = tested on: Mus musculus; assay: Dose required to induce hypersensitivity in mice (ip); type: functional
[6] = tested on: Mus musculus; assay: Minimal dose required to induce in mice straub tail (ip); type: functional
[7] = tested on: Mus musculus; assay: Inhibition of reserpine (5 mg/kg i.p.) induced hypothermia in mice 4 hr after i.p. administration.; type: functional; settings: ip
[8] = tested on: Mus musculus; assay: Minimal dose required to induce in mice exophthalmus (ip); type: functional
[9] = tested on: Mus musculus; assay: Lethal dose by i.p. administration.; type: functional; settings: ip
[10] = tested on: Mus musculus; assay: Inhibition of reserpine (5 mg/kg i.p.) induced hypothermia in mice 2 hr after i.p. administration.; type: functional; settings: ip
[11] = tested on: Mus musculus; assay: Minimal dose required to cause piloerection in mice after ip administration; type: functional
[12] = tested on: Mus musculus; assay: Dose required to induce hypersensitivity in mice (ip); not active at a dose of 25.0 mg/kg; type: functional, organism-based; set-up: dose 25 mg/kg
[13] = tested on: Felis catus; assay: Compound tested to induce facilitation of monosynaptic spikes in spinal ventral root by stimulation of the dorsal root (DR-VR) after iv administration in cats; type: functional
[14] = tested on: Mus musculus; assay: Dose required to induce hyperactivity in mice (ip); type: functional
[15] = tested on: Mus musculus; assay: Minimal dose required to cause piloerection in mice after ip administration; not active at a dose of 25.0 mg/kg; type: functional, organism-based; set-up: dose 25 mg/kg
[16] = tested on: Felis catus; assay: Compound tested to induce facilitation of monosynaptic spikes in spinal ventral root by stimulation of the dorsal root (DR-VR) after iv administration in cats; range is 0.1-0.3; type: functional
[17] = tested on: Mus musculus; assay: Minimal dose required to cause piloerection in mice after ip administration; not active at a dose of 150.0 mg/kg; type: functional, organism-based; set-up: dose 150 mg/kg
[18] = tested on: Mus musculus; assay: Minimal dose required to induce in mice exophthalmus (ip); not active at a dose of 150.0 mg/kg; type: functional, organism-based; set-up: dose 150 mg/kg
[19] = tested on: Mus musculus; assay: Minimal dose required to induce in mice straub tail (ip); not active at a dose of 150.0 mg/kg; type: functional, organism-based; set-up: dose 150 mg/kg
[20] = tested on: Mus musculus; assay: Minimal dose required to cause aggressiveness in mice after ip administration; not active at a dose of 150.0 mg/kg; type: functional, organism-based; set-up: dose 150 mg/kg
[21] = tested on: Mus musculus; assay: Minimal dose required to induce hyperaesthesia in mice (ip); not active at a dose of 150.0 mg/kg; type: functional, organism-based; set-up: dose 150 mg/kg
[22] = tested on: Mus musculus; assay: Dose required to induce hyperactivity in mice (ip); weak at a dose of 150.0 mg/kg; type: functional, organism-based; set-up: dose 150 mg/kg
[23] = tested on: Mus musculus; assay: Minimal dose required to cause piloerection in mice after ip administration; not active at a dose of 50.0 mg/kg; type: functional, organism-based; set-up: dose 50 mg/kg
[24] = tested on: Mus musculus; assay: Minimal dose required to cause aggressiveness in mice after ip administration; not active at a dose of 50.0 mg/kg; type: functional, organism-based; set-up: dose 50 mg/kg
[25] = tested on: Mus musculus; assay: Minimal dose required to induce hyperaesthesia in mice (ip); not active at a dose of 50.0 mg/kg; type: functional, organism-based; set-up: dose 50 mg/kg
[26] = tested on: Mus musculus; assay: Dose required to induce hyperactivity in mice (ip); not active at a dose of 50.0 mg/kg; type: functional, organism-based; set-up: dose 50 mg/kg
[27] = tested on: Mus musculus; assay: Minimal dose required to induce in mice straub tail (ip); not active at a dose of 50.0 mg/kg; type: functional, organism-based; set-up: dose 50 mg/kg
[28] = tested on: Mus musculus; assay: Minimal dose required to induce in mice exophthalmus (ip); not active at a dose of 50.0 mg/kg; type: functional, organism-based; set-up: dose 50 mg/kg
[29] = tested on: Mus musculus; assay: Dose required to induce hypersensitivity in mice (ip); not active at a dose of 50.0 mg/kg; type: functional, organism-based; set-up: dose 50 mg/kg
[30] = tested on: Mus musculus; assay: Dose required to induce hyperactivity in mice (ip); not active at a dose of 25.0 mg/kg; type: functional, organism-based; set-up: dose 25 mg/kg
[31] = tested on: Mus musculus; assay: Minimal dose required to cause aggressiveness in mice after ip administration; not active at a dose of 25.0 mg/kg; type: functional, organism-based; set-up: dose 25 mg/kg
[32] = tested on: Felis catus; assay: Compound tested to induce facilitation of monosynaptic spikes in spinal ventral root by stimulation of the dorsal root (DR-VR) after iv administration in cats; 0.3-1.0; type: functional

SMILES | CD50 [2] | MD [3] | ED50 [5] | MD [6] | ED50 [7] | MD [8] | LD50 [9] | ED50 [10] | MD [11] | ED50 [12] | MD [15] | MD [24] | ED50 [26] | MD [27] | ED50 [29] | ED50 [30] | MD [31] | further results
OC1(c2ccc3c(c2)OCO3)Cc2ccccc2C2=NCCN21 (configuration not stated) | 18.8 mg/kg | 4.7 mg/kg | 12.5 mg/kg | 4.7 mg/kg | 0.5 mg/kg | 4.7 mg/kg | 10.2 mg/kg | 0.1 mg/kg | 9.4 mg/kg |  |  |  |  |  |  |  |  | MD [1]: inactive; ED50 [4]: inactive
OC1(c2ccc(Cl)cc2)Cc2ccccc2C2=NCCN21 (configuration not stated) | 37.5 mg/kg | 37.5 mg/kg |  | 18.8 mg/kg | 6.4 mg/kg | 18.8 mg/kg | 75 mg/kg | 0.025 mg/kg |  | inactive | inactive |  |  |  |  |  |  | Activity [13]: >1 mg/kg; ED50 [14]: 25 mg/kg
OC1(c2ccc(Cl)c(Cl)c2)Cc2ccccc2C2=NCCN21 (configuration not stated) |  |  | 150 mg/kg |  | > 25.6 mg/kg |  | 150 mg/kg | 1.6 mg/kg |  |  |  |  |  |  |  |  |  | Activity [16]: 0.1 mg/kg; MD [17]: inactive; MD [18]: inactive; MD [19]: inactive; MD [20]: inactive; MD [21]: inactive; ED50 [22]: Weak
OC1(c2cccnc2)Cc2ccccc2C2=NCCN21 (configuration not stated) | 75 mg/kg |  |  |  | > 25.6 mg/kg |  | 68.8 mg/kg | 7 mg/kg |  |  |  | inactive | inactive | inactive | inactive |  |  | MD [23]: inactive; MD [25]: inactive; MD [28]: inactive
OC1(c2cccs2)Cc2ccccc2C2=NCCN21 (configuration not stated) | 75 mg/kg | 18.8 mg/kg | 25 mg/kg | 18.8 mg/kg | > 25.6 mg/kg | 18.8 mg/kg | 68.8 mg/kg | 4.5 mg/kg | 25 mg/kg |  |  |  |  |  |  | inactive | inactive | 
OC1(c2ccncc2)Cc2ccccc2C2=NCCN21 (configuration not stated) | 37.5 mg/kg | 18.8 mg/kg |  | 18.8 mg/kg | 3.3 mg/kg | 18.8 mg/kg | 37.9 mg/kg | 2.3 mg/kg |  | Weak | inactive |  |  |  |  | inactive | inactive | 
OC1(c2cccc(C(F)(F)F)c2)Cc2ccccc2C2=NCCN21 (configuration not stated) | 75 mg/kg | 37.5 mg/kg |  |  | > 25.6 mg/kg | 37.5 mg/kg | 50 mg/kg | 1.9 mg/kg | 37.5 mg/kg |  |  | inactive | inactive | inactive | inactive |  |  | Activity [32]: 0.3 mg/kg
OC1(c2ccccc2Cl)Cc2ccccc2C2=NCCN21 (configuration not stated) | 37.5 mg/kg | 18.8 mg/kg |  | 25 mg/kg | 11.5 mg/kg | 9.4 mg/kg | 34.4 mg/kg | 6.1 mg/kg |  | inactive | inactive |  |  |  |  | inactive | inactive | 
OC1(c2ccc(F)cc2)Cc2ccccc2C2=NCCN21 (configuration not stated) | 75 mg/kg | 18.8 mg/kg | 25 mg/kg | 9.4 mg/kg | 10 mg/kg | 9.4 mg/kg | 76.9 mg/kg | 0.06 mg/kg | 18.8 mg/kg |  |  |  |  |  |  |  |  | ED50 [14]: 25 mg/kg; Activity [32]: 0.3 mg/kg
OC1(c2ccc(Cl)cc2Cl)Cc2ccccc2C2=NCCN21 (configuration not stated) | 75 mg/kg |  |  |  | > 25.6 mg/kg |  | 81.3 mg/kg | 5.4 mg/kg |  |  |  | inactive | inactive | inactive | inactive |  |  | MD [23]: inactive; Activity [13]: >3 mg/kg; MD [25]: inactive; MD [28]: inactive
